This note sets out measurements from ChEMBL document CHEMBL5625221, “Discovery of indolinone-bearing benzenesulfonamides as new dual carbonic anhydrase and VEGFR-2 inhibitors possessing anticancer and pro-apoptotic properties” (Eur J Med Chem, 2023).

For one experiment, the system named is MDA-MB-231. Kind of experiment: Induction of apoptosis in human MDA-MB-231 cells assessed as BCL-2 protein level incubated for 24 hrs by ELISA. Format: functional.
Settings: not given
(An ELISA detects its analyte on a solid surface through an enzyme-linked reagent.)
As to `CC(C(=O)Nc1ccc(S(N)(=O)=O)cc1)N1CCCC(C(=O)N/N=C2\C(=O)Nc3ccccc32)C1` (centres undefined), the Activity amounted to 3.31 ng/mL.

Another experiment deals with MDA-MB-231. Kind of experiment: Induction of apoptosis in human MDA-MB-231 cells assessed as active caspase-3 protein level incubated for 24 hrs by ELISA.
Settings: not given
Format: functional.
Take `CC(C(=O)Nc1ccc(S(N)(=O)=O)cc1)N1CCCC(C(=O)N/N=C2\C(=O)Nc3ccccc32)C1` (centres undefined): the Activity is 509 pg/mL.

In another experiment the test system is HCT-116. As to the kind of experiment: cells. The note with it: Homo sapiens, HCT-116, 48 h.
Description: Antiproliferative activity against human HCT-116 cells assessed as inhibition of cell growth incubated for 48 hrs by WST-1 reagent based ELISA
As to `NS(=O)(=O)c1ccc(CC/N=C2\C(=O)Nc3ccc(Cl)cc32)cc1`, it took 3670 nM to reach half-maximal inhibition (IC50).

The next experiment deals with MDA-MB-231. Kind of experiment: cells. The note with it: Homo sapiens, MDA-MB-231, 48 h.
Description: Antiproliferative activity against human MDA-MB-231 cells assessed as inhibition of cell growth incubated for 48 hrs by MTT reagent based ELISA
`COc1ccc2c(c1)NC(=O)C2=NNC(=O)C1CCCN(C(C)C(=O)Nc2ccc(S(N)(=O)=O)cc2)C1` (centres undefined) had an IC50 of 7200 nM.

In the case of `CC(C(=O)Nc1ccc(S(N)(=O)=O)cc1)N1CCCC(C(=O)N/N=C2\C(=O)Nc3ccccc32)C1` (centres undefined), half-maximal inhibition (IC50) required 4080 nM. Regarding `NS(=O)(=O)c1ccc(NC(=O)CN2CCC(C(=O)N/N=C3\C(=O)Nc4ccc(F)cc43)CC2)cc1`, half-maximal inhibition (IC50) required 18900 nM. Same read-out and setting: as for `O=c1[nH]cc(F)c(=O)[nH]1` [FLUOROURACIL], the figure is 8700 nM.

The next experiment relates to MCF7. As to the kind of experiment: cells. The settings on record: Homo sapiens, MCF7, 48 h.
Description: Antiproliferative activity against human MCF7 cells assessed as inhibition of cell growth incubated for 48 hrs by MTT reagent based ELISA
The compound `COc1ccc2c(c1)NC(=O)C2=NNC(=O)C1CCCN(C(C)C(=O)Nc2ccc(S(N)(=O)=O)cc2)C1` (centres undefined) showed an IC50 of 11300 nM. Compound `CC(C(=O)Nc1ccc(S(N)(=O)=O)cc1)N1CCCC(C(=O)N/N=C2\C(=O)Nc3ccccc32)C1` (centres undefined) returned an IC50 of 10000 nM. `NS(=O)(=O)c1ccc(NC(=O)CN2CCC(C(=O)N/N=C3\C(=O)Nc4ccc(F)cc43)CC2)cc1` had an IC50 of 29300 nM. `O=c1[nH]cc(F)c(=O)[nH]1` [FLUOROURACIL] showed an IC50 of 5170 nM.

The target in a further experiment is Carbonic anhydrase 9 (Homo sapiens, UniProt Q16790). Kind of experiment: Inhibition of human carbonic anhydrase 9 assessed as inhibition constant preincubated for 15 mins by phenol red dye based stopped flow CO2 hydration assay.
Settings: not given
With `NS(=O)(=O)c1ccc(CC/N=C2\C(=O)Nc3ccc(Cl)cc32)cc1`, the Ki was 28.7 nM. Take `CC(C(=O)Nc1ccc(S(N)(=O)=O)cc1)N1CCCC(C(=O)N/N=C2\C(=O)Nc3cc([N+](=O)[O-])ccc32)C1` (centres undefined): the Ki was found to be 29.4 nM.

With `COc1ccc2c(c1)NC(=O)C2=NNC(=O)C1CCCN(C(C)C(=O)Nc2ccc(S(N)(=O)=O)cc2)C1` (centres undefined), the Ki was 4.2 nM. In the case of `NS(=O)(=O)c1ccc(NC(=O)CN2CCC(C(=O)NN=C3C(=O)Nc4ccc(Cl)cc43)CC2)cc1`, the Ki was 14.3 nM. With `CC(C(=O)Nc1ccc(S(N)(=O)=O)cc1)N1CCCC(C(=O)N/N=C2\C(=O)Nc3cc(Br)ccc32)C1` (centres undefined), the Ki worked out at 9.8 nM. On to `CC(C(=O)Nc1ccc(S(N)(=O)=O)cc1)N1CCCC(C(=O)N/N=C2\C(=O)Nc3ccccc32)C1` (centres undefined), for which the Ki was 3.6 nM. Same read-out and setting: the result for `COc1ccc2c(c1)NC(=O)C2=NNC(=O)C1CCCN(CC(=O)Nc2ccc(S(N)(=O)=O)cc2)C1` (centres undefined) reads 19 nM; that for `NS(=O)(=O)c1ccc(NC(=O)CN2CCCC(C(=O)N/N=C3\C(=O)Nc4cc(Br)ccc43)C2)cc1` (centres undefined), 65.9 nM. Regarding `NS(=O)(=O)c1ccc(NC(=O)CN2CCCC(C(=O)N/N=C3\C(=O)Nc4ccccc43)C2)cc1` (centres undefined), the Ki was 52.8 nM. `Cc1ccc2c(c1)NC(=O)/C2=N\NC(=O)C1CCCN(CC(=O)Nc2ccc(S(N)(=O)=O)cc2)C1` (centres undefined): the Ki worked out at 15.8 nM. Take `CN1C(=O)/C(=N\NC(=O)C2CCCN(CC(=O)Nc3ccc(S(N)(=O)=O)cc3)C2)c2ccccc21` (centres undefined): the Ki is 33.5 nM.

On to `CC(C(=O)Nc1ccc(S(N)(=O)=O)cc1)N1CCCC(C(=O)N/N=C2\C(=O)Nc3cc(F)ccc32)C1` (centres undefined), for which the Ki amounted to 5.1 nM. Still for that read-out and setting: as for `CC(C(=O)Nc1ccc(S(N)(=O)=O)cc1)N1CCCC(C(=O)N/N=C2\C(=O)N(Cc3ccc(F)cc3)c3ccccc32)C1` (centres undefined), the figure is 9.8 nM. With `NS(=O)(=O)c1ccc(NC(=O)CN2CCC(C(=O)N/N=C3\C(=O)N(Cc4ccccc4)c4ccccc43)CC2)cc1`, the Ki stood at 12.8 nM. For `NS(=O)(=O)c1ccc(NC(=O)CN2CCC(C(=O)NN=C3C(=O)Nc4ccccc43)CC2)cc1`, the Ki stood at 24.8 nM. `NS(=O)(=O)c1ccc(NC(=O)CN2CCC(C(=O)N/N=C3\C(=O)Nc4ccc(F)cc43)CC2)cc1`: the Ki is 6.2 nM. With `NS(=O)(=O)c1ccc(NC(=O)CN2CCCC(C(=O)N/N=C3\C(=O)Nc4cc(Cl)ccc43)C2)cc1` (centres undefined), the Ki was determined as 22.1 nM. With `NS(=O)(=O)c1ccc(NC(=O)CN2CCCC(C(=O)NN=C3C(=O)Nc4cc(F)ccc43)C2)cc1` (centres undefined), the Ki is 35.4 nM. As to `NS(=O)(=O)c1ccc(NC(=O)CN2CCC(C(=O)NN=C3C(=O)Nc4ccc(Br)cc43)CC2)cc1`, the Ki stood at 27.9 nM. For `NS(=O)(=O)c1ccc(NC(=O)CN2CCCC(C(=O)N/N=C3\C(=O)N(Cc4ccccc4)c4ccccc43)C2)cc1` (centres undefined), the Ki amounted to 21.4 nM. Turning to `CC(C(=O)Nc1ccc(S(N)(=O)=O)cc1)N1CCCC(C(=O)N/N=C2\C(=O)N(Cc3ccc(Cl)cc3)c3ccccc32)C1` (centres undefined), the Ki came out at 19.2 nM.

Another experiment relates to MDA-MB-231. Kind of experiment: Induction of apoptosis in human MDA-MB-231 cells assessed as Bax protein level incubated for 24 hrs by ELISA. It counts as functional.
Settings: not given
As to `CC(C(=O)Nc1ccc(S(N)(=O)=O)cc1)N1CCCC(C(=O)N/N=C2\C(=O)Nc3ccccc32)C1` (centres undefined), the Activity stood at 265 pg/mL.

A further experiment deals with Vascular endothelial growth factor receptor 2 (Homo sapiens, UniProt P35968). As to the kind of experiment: Inhibition of VEGFR-2 (unknown origin) using biotinylated poly(Glu-Tyr) at 4:1 ratio as substrate in presence of ATP incubated for 5 mins by ELISA.
Vascular endothelial growth factor receptor 2, sequence (P35968 whole entry): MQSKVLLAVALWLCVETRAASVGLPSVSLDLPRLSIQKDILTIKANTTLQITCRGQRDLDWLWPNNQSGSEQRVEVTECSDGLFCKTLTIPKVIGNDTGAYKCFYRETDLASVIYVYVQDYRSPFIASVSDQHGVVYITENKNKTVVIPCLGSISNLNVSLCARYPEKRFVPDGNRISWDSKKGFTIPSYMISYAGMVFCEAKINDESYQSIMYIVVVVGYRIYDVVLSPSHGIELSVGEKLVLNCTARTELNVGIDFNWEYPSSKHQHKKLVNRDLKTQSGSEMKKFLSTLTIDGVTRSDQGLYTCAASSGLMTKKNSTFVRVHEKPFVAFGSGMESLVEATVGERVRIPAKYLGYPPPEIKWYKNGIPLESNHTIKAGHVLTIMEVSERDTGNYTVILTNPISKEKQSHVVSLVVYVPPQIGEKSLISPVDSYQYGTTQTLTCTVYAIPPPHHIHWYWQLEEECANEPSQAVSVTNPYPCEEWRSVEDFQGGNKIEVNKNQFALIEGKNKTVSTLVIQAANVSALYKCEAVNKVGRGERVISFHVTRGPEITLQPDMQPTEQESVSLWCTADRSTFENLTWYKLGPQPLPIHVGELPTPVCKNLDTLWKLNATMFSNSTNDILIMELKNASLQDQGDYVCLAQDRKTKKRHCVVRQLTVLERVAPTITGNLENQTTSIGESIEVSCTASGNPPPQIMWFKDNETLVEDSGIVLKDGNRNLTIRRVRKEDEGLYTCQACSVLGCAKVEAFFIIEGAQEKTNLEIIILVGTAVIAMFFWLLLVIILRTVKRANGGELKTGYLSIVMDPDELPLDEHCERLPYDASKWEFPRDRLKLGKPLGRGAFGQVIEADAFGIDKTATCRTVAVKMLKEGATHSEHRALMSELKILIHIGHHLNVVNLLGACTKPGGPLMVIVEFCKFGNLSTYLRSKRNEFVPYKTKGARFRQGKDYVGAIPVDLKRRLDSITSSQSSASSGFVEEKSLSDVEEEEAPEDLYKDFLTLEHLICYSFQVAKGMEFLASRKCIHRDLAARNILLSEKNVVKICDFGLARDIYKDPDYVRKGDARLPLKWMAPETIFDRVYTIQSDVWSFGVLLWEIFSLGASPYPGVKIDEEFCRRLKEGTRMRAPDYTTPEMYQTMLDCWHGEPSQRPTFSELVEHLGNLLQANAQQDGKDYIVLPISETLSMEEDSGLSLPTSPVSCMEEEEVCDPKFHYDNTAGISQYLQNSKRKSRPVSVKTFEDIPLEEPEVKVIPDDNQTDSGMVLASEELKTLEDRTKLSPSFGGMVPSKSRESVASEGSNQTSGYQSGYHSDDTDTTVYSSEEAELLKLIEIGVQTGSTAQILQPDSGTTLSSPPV
Settings: not given
`COc1ccc2c(c1)NC(=O)C2=NNC(=O)C1CCCN(C(C)C(=O)Nc2ccc(S(N)(=O)=O)cc2)C1` (centres undefined): the IC50 was found to be 358 nM.

For `CC(C(=O)Nc1ccc(S(N)(=O)=O)cc1)N1CCCC(C(=O)N/N=C2\C(=O)Nc3ccccc32)C1` (centres undefined), the IC50 stood at 204 nM. Regarding `NS(=O)(=O)c1ccc(NC(=O)CN2CCC(C(=O)N/N=C3\C(=O)Nc4ccc(F)cc43)CC2)cc1`, the IC50 is 811 nM.

For the next experiment, the system named is Caco-2. As to the kind of experiment: cells. The settings on record: Homo sapiens, Caco-2, 24 h.
Description: Antiproliferative activity against human Caco-2 cells assessed as inhibition of cell growth incubated for 24 hrs by MTS assay
For `O=C(CN1C(=O)S/C(=C2/C(=O)Nc3ccccc32)C1=O)Nc1ccccc1`, the IC50 came to 9300 nM.

The subject of the next experiment is MCF7. As to the kind of experiment: cells. The settings on record: Homo sapiens, MCF7, 48 h. The source holds these as a separate data set.
Description: Antiproliferative activity against human MCF7 cells assessed as inhibition of cell growth incubated for 48 hrs by WST-1 reagent based ELISA
With `NS(=O)(=O)c1ccc(CC/N=C2\C(=O)Nc3ccc(Cl)cc32)cc1`, the IC50 came out at 23900 nM.

Another experiment concerns MDA-MB-231. Kind of experiment: Induction of apoptosis in human MDA-MB-231 cells assessed as decrease in BCL-2 protein level incubated for 24 hrs by ELISA relative to control. Format: functional. Also noted: scale not given: the % may be the effect or the level left.
Settings: not given
On to `CC(C(=O)Nc1ccc(S(N)(=O)=O)cc1)N1CCCC(C(=O)N/N=C2\C(=O)Nc3ccccc32)C1` (centres undefined), for which the Activity is 76%.

For orientation: IC50 means the midpoint of a concentration-inhibition curve. As usually defined, the Ki is a measure of affinity in units of concentration, obtained from inhibition or displacement.
